Assay: logP determination by HPLC on reverse-phase column (C 18), EEC directive 79/831 Annex V.A8
Type: physicochemical
Description: In the acidic range, the determination is carried out at pH 2.3 using the mobile phases 0.1% aqueous phosphoric acid and acetonitrile; linear gradient from 10% acetonitrile to 90% acetonitrile.
In the neutral range, the determination is carried out at pH 7.5 using the mobile phases 0.01 molar aqueous phosphate buffer solution and acetonitrile; linear gradient from 10% acetonitrile to 90% acetonitrile.

[1] = reverse-phase HPLC column (C 18), pH 2.3, acidic range, pH 2.3; 0.1% aqueous phosphoric acid/acetonitrile gradient; 43° C.; values marked a)
[2] = reverse-phase HPLC column (C 18), pH 7.5, neutral range, pH 7.5; 0.01 molar aqueous phosphate buffer/acetonitrile gradient; 43° C.; values marked b)

Row | SMILES | chromatographic logP [1] | chromatographic logP [2]
1 | O=C1CCC(c2ccc(-c3ccc(OC(F)(F)F)cc3)cc2)N1 (centres unmarked) [Example V-27] | 2.96 | –
2 | O=C1CCC(c2ccc(-c3ccc(Br)cc3)cc2)N1 (centres unmarked) [Example V-28] | 2.76 | –
3 | CC(C)(C)OC(=O)N1C(=O)C(C(=O)c2ccc(Cl)cc2)CC1c1ccc(F)cc1 (centres unmarked) [II-2] | 4.13 | –
4 | CC(C)(C)OC(=O)N1C(=O)CCC1c1ccc(-c2ccc(SC(F)(F)F)cc2)cc1 (centres unmarked) [III-3] | 4.67 | –
5 | CC(C)(C)OC(=O)N1C(=O)CCC1c1ccc(C(C)(C)C)cc1 (centres unmarked) [III-4] | 3.92 | –
6 | Cc1cc(Cl)ccc1C1CCC(=O)N1C(=O)OC(C)(C)C (centres unmarked) [III-6] | 3.24 | 3.25
7 | COc1ccc(C2CCC(=O)N2C(=O)OC(C)(C)C)cc1F (centres unmarked) [III-7] | 2.43 | –
8 | COc1ccc(C2CCC(=O)N2C(=O)OC(C)(C)C)cc1 (centres unmarked) [III-8] | 2.43 | –
9 | CC(C)(C)OC(=O)N1C(=O)CCC1c1ccc(Cl)cc1Cl (centres unmarked) [III-10] | 3.54 | –
10 | CC(C)(C)OC(=O)N1C(=O)CCC1c1ccc(Cl)c(Cl)c1 (centres unmarked) [III-11] | 3.29 | –
11 | CC(C)(C)OC(=O)N1C(=O)CCC1c1ccc(Cl)cc1 (centres unmarked) [III-13] | 2.93 | –
12 | Cc1ccc(C2CCC(=O)N2C(=O)OC(C)(C)C)cc1Cl (centres unmarked) [III-14] | 3.3 | –
13 | CSc1ccc(C2CCC(=O)N2C(=O)OC(C)(C)C)cc1 (centres unmarked) [III-15] | 2.84 | 2.83
14 | CC(C)(C)OC(=O)N1C(=O)CCC1c1ccc(F)cc1F (centres unmarked) [III-16] | 2.69 | –
15 | Cc1ccc(C2CCC(=O)N2C(=O)OC(C)(C)C)c(C)c1 (centres unmarked) [III-17] | 3.2 | –
16 | CC(C)(C)OC(=O)N1C(=O)CCC1c1ccc(CCc2ccccc2)cc1 (centres unmarked) [III-19] | 4.11 | –
17 | CC(C)(C)OC(=O)N1C(=O)CCC1c1ccc(F)cc1 (centres unmarked) [III-21] | 2.57 | –
18 | CC(C)Oc1ccc(-c2ccc(C3CCC(=O)N3C(=O)OC(C)(C)C)cc2)cc1 (centres unmarked) [III-23] | 4.17 | –
19 | CC(C)(C)OC(=O)N1C(=O)CCC1c1ccc(-c2ccc(OCc3ccc(Cl)cc3)cc2)cc1 (centres unmarked) [III-24] | 4.93 | –
20 | CC(C)(C)OC(=O)N1C(=O)CCC1c1ccc(-c2ccc(OCc3ccc(OC(F)(F)F)cc3)cc2)cc1 (centres unmarked) [III-25] | 5.03 | –
21 | CCOc1cc(C(C)(C)C)ccc1C1CCC(=O)N1C(=O)OC(C)(C)C (centres unmarked) [III-28] | 4.4 | –

Now from value to compound:

Row | chromatographic logP [1] | chromatographic logP [2] | SMILES
22 | – | 3.35 | CC(C)(C)OC(=O)N1C(=O)C(C(=O)c2ccccc2Br)CC1c1ccc(OC(F)(F)F)cc1 (centres unmarked) [II-1, tert-butyl 3-(2-bromobenzoyl)-2-oxo-5-[4-(trifluoromethoxy)phenyl]-1-pyrrolidinecarboxylate]
23 | – | 3.03 | CC(C)(C)OC(=O)N1C(=O)C(C(=O)c2ccccc2C(F)(F)F)CC1c1ccc(Br)cc1 (centres unmarked) [II-3]
24 | – | 5.05 | Cc1ccccc1C(=O)C1CC(c2ccc(C(C)C)cc2)N(C(=O)OC(C)(C)C)C1=O (centres unmarked) [II-5]
25 | – | 4.6 | CC(C)(C)OC(=O)N1C(=O)C(C(=O)c2ccc(Cl)c(Cl)c2)CC1c1ccccc1 (centres unmarked) [II-6]
26 | 3.28 | – | CC(C)(C)OC(=O)N1C(=O)CCC1c1ccc(OC(F)(F)F)cc1 (centres unmarked) [III-1, tert-butyl 2-oxo-5-[4-(trifluoromethoxy)phenyl]-1-pyrrolidinecarboxylate]
27 | 2.52 | – | CC(C)(C)OC(=O)N1C(=O)CCC1c1ccccc1 (centres unmarked) [III-2]
28 | 3.65 | – | CC(C)c1ccc(C2CCC(=O)N2C(=O)OC(C)(C)C)cc1 (centres unmarked) [III-5]
29 | 3.83 | – | Cc1ccc(C2CCC(=O)N2C(=O)OC(C)(C)C)c(Cl)c1 (centres unmarked) [III-9]
30 | 2.67 | – | CC(C)(C)OC(=O)N1C(=O)CCC1c1ccc(F)c(F)c1 (centres unmarked) [III-12]
31 | 4.71 | – | CC(C)(C)OC(=O)N1C(=O)CCC1c1ccc(C2CCCCC2)cc1 (centres unmarked) [III-18]
32 | 2.9 | – | Cc1ccc(C2CCC(=O)N2C(=O)OC(C)(C)C)cc1 (centres unmarked) [III-20]
33 | 4.26 | – | CC(C)(C)OC(=O)N1C(=O)CCC1c1ccc(-c2ccc(Br)cc2)cc1 (centres unmarked) [III-27]
